Experimental data as given in patent US9938562B2, “Naphthalene derived chromogenic enzyme substrates” (Glycosynth Limited, priority 2013, dated 2018).
Counter-ions that a name gives are not always drawn.

How the values were obtained:
Assay type in all cases: cell-based
[1] = tested on: Escherichia coli NCTC 10418; experiment: Agar plate multi-point inoculation, colour; details: Columbia agar, FAC 500 mg/L, substrate 300 mg/L, 37° C. 18 h in air
[2] = tested on: Providencia rettgeri NCTC 7475; experiment: Agar plate multi-point inoculation, colour; details: Columbia agar, FAC 500 mg/L, substrate 300 mg/L, 37° C. 18 h in air
[3] = tested on: Enterobacter cloacae NCTC 11936; experiment: Agar plate multi-point inoculation, colour; details: Columbia agar, FAC 500 mg/L, substrate 300 mg/L, 37° C. 18 h in air
[4] = tested on: Serratia marcescens NCTC 10211; experiment: Agar plate multi-point inoculation, colour; details: Columbia agar, FAC 500 mg/L, substrate 300 mg/L, 37° C. 18 h in air
[5] = tested on: Salmonella typhimurium NCTC 74; experiment: Agar plate multi-point inoculation, colour; details: Columbia agar, FAC 500 mg/L, substrate 300 mg/L, 37° C. 18 h in air
[6] = tested on: Pseudomonas aeruginosa NCTC 10662; experiment: Agar plate multi-point inoculation, colour; details: Columbia agar, FAC 500 mg/L, substrate 300 mg/L, 37° C. 18 h in air
[7] = tested on: Yersinia enterocolitica NCTC 11176; experiment: Agar plate multi-point inoculation, colour; details: Columbia agar, FAC 500 mg/L, substrate 300 mg/L, 37° C. 18 h in air
[8] = tested on: Steptococcus pyogenes NCTC 8306; experiment: Agar plate multi-point inoculation, colour; details: Columbia agar, FAC 500 mg/L, substrate 300 mg/L, 37° C. 18 h in air
[9] = tested on: Staphylococcus aureus (MRSA) NCTC 11939; experiment: Agar plate multi-point inoculation, colour; details: Columbia agar, FAC 500 mg/L, substrate 300 mg/L, 37° C. 18 h in air
[10] = tested on: Staphylococcus aureus NCTC 6571; experiment: Agar plate multi-point inoculation, colour; details: Columbia agar, FAC 500 mg/L, substrate 300 mg/L, 37° C. 18 h in air
[11] = tested on: Staphylococcus epidermidis NCTC 11047; experiment: Agar plate multi-point inoculation, colour; details: Columbia agar, FAC 500 mg/L, substrate 300 mg/L, 37° C. 18 h in air
[12] = tested on: Listeria monocytogenes NCTC 11994; experiment: Agar plate multi-point inoculation, colour; details: Columbia agar, FAC 500 mg/L, substrate 300 mg/L, 37° C. 18 h in air
[13] = tested on: Enterococcus faecium NCTC 7171; experiment: Agar plate multi-point inoculation, colour; details: Columbia agar, FAC 500 mg/L, substrate 300 mg/L, 37° C. 18 h in air
[14] = tested on: Enterococcus faecalis NCTC 775; experiment: Agar plate multi-point inoculation, colour; details: Columbia agar, FAC 500 mg/L, substrate 300 mg/L, 37° C. 18 h in air
[15] = tested on: Bacillus subtilis NCTC 9372; experiment: Agar plate multi-point inoculation, colour; details: Columbia agar, FAC 500 mg/L, substrate 300 mg/L, 37° C. 18 h in air
[16] = tested on: Candida albicans ATCC 90028; details: Columbia agar, FAC 500 mg/L, substrate 300 mg/L, 37° C. 18 h in air
[17] = tested on: Candida glabrata NCPF 3943; experiment: Agar plate multi-point inoculation, colour; details: Columbia agar, FAC 500 mg/L, substrate 300 mg/L, 37° C. 18 h in air
[18] = tested on: Burkholderia cepacia 1222; experiment: Agar plate multi-point inoculation, colour; details: Columbia agar, FAC 500 mg/L, substrate 300 mg/L, 37° C. 18 h in air
[19] = tested on: Citrobacter freundii NCTC 9750 or 46262; experiment: Agar plate multi-point inoculation, colour; details: Columbia agar, FAC 500 mg/L, substrate 300 mg/L, 37° C. 18 h in air
[20] = tested on: Morganella morganii 462403 (wild); experiment: Agar plate multi-point inoculation, colour; details: Columbia agar, FAC 500 mg/L, substrate 300 mg/L, 37° C. 18 h in air
[21] = tested on: Gram-positive or Gram-negative strains; experiment: Toxicity / growth of microorganisms on substrate agar plates; details: substrate 300 mg/L
Protocol: This compound was tested on agar plates by multi-point inoculation. The plates were made from Columbia agar (Oxoid, Basingstoke, UK) (100 ml) supplemented with ferric ammonium citrate (FAC) (50 mg). After the agar had been autoclaved (121° C.) and cooled to 50° C., a filter sterilized solution of the substrate (8) (30 mg) dissolved in N-methylpyrrolidone (NMP) (200 μL) was added, thus giving a substrate concentration of 300 mg/L. After pouring, the plates were inoculated with a range of microorganisms and incubated at 37° C. for 18 h in air (Table 1).
In the publication of Zincke and Fries, the authors reported that treatment of 1,4,6,7-tetrabromo-DHN (20) with tin (II) chloride led to the removal of the bromines in the 1 and 4 positions. Their work was repeated and the expected 6,7-dibromo-DHN (21) was obtained smoothly and in good yield (68%). 6,7-Dibromo-DHN (21) is isomeric with the 1,4-dibromo compound which had proven unsuccessful as an aglycone for the detection of microorganisms. Notwithstanding this latter fact, we proceeded to evaluate the properties of 6,7-dibromo-DHN […] as an aglycone for artificial chromogenic enzyme substrates. […]

range of microorganisms = experiment: Agar plate evaluation with a range of microorganisms (hue, diffusion, background); details: agar plates with FAC
[22] = tested on: clinical isolates of E. coli; experiment: Glucuronide sensitivity screen, agar plates (CPS ID 3 or Columbia agar)
E. cloacae = experiment: Glucuronide screen, agar plates (CPS ID 3 or Columbia agar)
E. faecium NCTC 7171 = experiment: as above; details: E. faecium NCTC 7171, agar
E. faecalis NCTC 775 = experiment: as above; details: E. faecalis NCTC 775, agar
[23] = 100 E. coli strains, agar, 18 h incubation

In the case of `OC[C@H]1O[C@@H](Oc2cc3cc(Br)c(Br)cc3cc2O)C(O)C1O` (stereo partly drawn) [Compound 23, 6,7-Dibromo-DHN-β-D-ribofuranoside], the Colour [1] is reported as “−”, the Colour [2] is reported as “−” and the Colour [3] is reported as “++”. For the same molecule, the Colour [4] was “++”, the Colour [5] was “++” and the Colour [6] was “+”. For the same molecule, the Colour [7] was “−”, the Colour [8] was “−” and the Colour [9] was “−”. The Colour [10] was “−”, the Colour [11] was “−” and the Colour [12] was “−”. The Colour [13] was “−”, the Colour [14] was “−” and the Colour [15] was “−”. The Colour [16] was “−”, the Colour [17] was “−” and the Colour [18] was “+/−”. The Colour [19] was “++”, the Colour [20] was “++” and the “growth of Gram-positive bacteria” value [21] was “mainly suppressed”. The “colour (hue) after hydrolysis” value (range of microorganisms) was “largely discrete red-brown or maroon colonies”.
In the case of `O=C(O)[C@H]1O[C@@H](Oc2c[nH]c3cc(Cl)ccc23)[C@H](O)[C@@H](O)[C@@H]1O` [Rose-β-D-glucuronide CHA salt, 6-chloro-3-indolyl β-D-glucuronide], the “% Sensitivity” value [22] is reported as 81%, the Negative strains [22, 23] is reported as 19 and the Positive strains [22, 23] is reported as 81. For the same molecule, the Colour ([22]; E. coli 260262P, agar) was “Red”, the Colour ([22]; E. coli 260280Z, agar) was “Red” and the Colour ([22]; E. coli 260310H, agar) was “Red”. For the same molecule, the Colour ([22]; E. coli 260313A, agar) was “−”, the Colour ([22]; E. coli 260316T, agar) was “−” and the Colour ([22]; E. coli 260327V, agar) was “Red”. For the same molecule, the Colour ([22]; E. coli 260330Y, agar) was “Red”, the Colour ([22]; E. coli 260333P, agar) was “−” and the Colour ([22]; E. coli 260345F, agar) was “Red”. The Colour ([22]; E. coli 260348K, agar) was “Red”, the Colour ([22]; E. coli 260354W, agar) was “Red” and the Colour ([22]; E. coli 260364H, agar) was “−”. The Colour ([22]; E. coli 260370C, agar) was “Red”, the Colour ([22]; E. coli 260375E, agar) was “Red” and the Colour ([22]; E. coli 260390B, agar) was “−”. The Colour ([22]; E. coli 260396Z, agar) was “Red”, the Colour ([22]; E. coli 260398Q, agar) was “Red” and the Colour ([22]; E. coli 260399E, agar) was “Red”. For the same molecule, the Colour ([22]; E. coli 260400N, agar) was “−”, the Colour ([22]; E. coli 260401Q, agar) was “Red” and the Colour ([22]; E. coli 260402H, agar) was “Red”. For the same molecule, the Colour ([22]; E. coli 260404W, agar) was “Red”, the Colour ([22]; E. coli 260405P, agar) was “Red” and the Colour ([22]; E. coli 260406A, agar) was “−”. For the same molecule, the Colour ([22]; E. coli 260406Y, agar) was “Red”, the Colour ([22]; E. coli 260407F, agar) was “Red” and the Colour ([22]; E. coli 260408C, agar) was “Red”. For the same molecule, the Colour ([22]; E. coli 260411Z, agar) was “Red”, the Colour ([22]; E. coli 260412Q, agar) was “Red” and the Colour ([22]; E. coli 260414H, agar) was “Red”. The Colour ([22]; E. coli 260415Y, agar) was “Red”, the Colour ([22]; E. coli 260416W, agar) was “−” and the Colour ([22]; E. coli 260417P, agar) was “Red”. For the same molecule, the Colour ([22]; E. coli 260422Y, agar) was “Red”, the Colour ([22]; E. coli 260424P, agar) was “Red” and the Colour ([22]; E. coli 260425A, agar) was “Red”. The Colour ([22]; E. coli 260426F, agar) was “Red”, the Colour ([22]; E. coli 260428T, agar) was “Red” and the Colour ([22]; E. coli 260431N, agar) was “Red”. The Colour ([22]; E. coli 260432E, agar) was “Red”, the Colour ([22]; E. coli 260433H, agar) was “Red” and the Colour ([22]; E. coli 260434Y, agar) was “Red”. For the same molecule, the Colour ([22]; E. coli 260435W, agar) was “Red”, the Colour ([22]; E. coli 260436P, agar) was “Red” and the Colour ([22]; E. coli 260437A, agar) was “Tr. Red”. For the same molecule, the Colour ([22]; E. coli 260438F, agar) was “Red”, the Colour ([22]; E. coli 260439C, agar) was “Red” and the Colour ([22]; E. coli 260440S, agar) was “Red”. The Colour ([22]; E. coli 260441G, agar) was “Red”, the Colour ([22]; E. coli 260458Y, agar) was “Red” and the Colour ([22]; E. coli 260459W, agar) was “Red”. For the same molecule, the Colour ([22]; E. coli 260463D, agar) was “Red”, the Colour ([22]; E. coli 260464G, agar) was “Red” and the Colour ([22]; E. coli 260471B, agar) was “−”. The Colour ([22]; E. coli 260478N, agar) was “−”, the Colour ([22]; E. coli 260479Q, agar) was “Red” and the Colour ([22]; E. coli 260480M, agar) was “Red”. For the same molecule, the Colour ([22]; E. coli 260481J, agar) was “Red”, the Colour ([22]; E. coli 260483R, agar) was “−” and the Colour ([22]; E. coli 260485D, agar) was “Red”. For the same molecule, the Colour ([22]; E. coli 260486L, agar) was “Red”, the Colour ([22]; E. coli 260492J, agar) was “Red” and the Colour ([22]; E. coli 260494B, agar) was “Red”. For the same molecule, the Colour ([22]; E. coli 260495R, agar) was “−”, the Colour ([22]; E. coli 260497D, agar) was “Red” and the Colour ([22]; E. coli 260502G, agar) was “Red”. The Colour ([22]; E. coli 260503Z, agar) was “Red”, the Colour ([22]; E. coli 260504N, agar) was “Red” and the Colour ([22]; E. coli 260505Q, agar) was “−”. The Colour ([22]; E. coli 260506E, agar) was “Red”, the Colour ([22]; E. coli 260508Y, agar) was “Red” and the Colour ([22]; E. coli 260509W, agar) was “Red”. For the same molecule, the Colour ([22]; E. coli 260510R, agar) was “Red”, the Colour ([22]; E. coli 260511X, agar) was “Red” and the Colour ([22]; E. coli 260514G, agar) was “−”. The Colour ([22]; E. coli 260515Z, agar) was “Red”, the Colour ([22]; E. coli 260521S, agar) was “Red” and the Colour ([22]; E. coli 260522Z, agar) was “Red”. For the same molecule, the Colour ([22]; E. coli 260532S, agar) was “Red”, the Colour ([22]; E. coli 260533G, agar) was “Red” and the Colour ([22]; E. coli 260536Q, agar) was “Red”. For the same molecule, the Colour ([22]; E. coli 260537E, agar) was “−”, the Colour ([22]; E. coli 260538H, agar) was “−” and the Colour ([22]; E. coli 260539Y, agar) was “Red”. The Colour ([22]; E. coli 260541R, agar) was “Red”, the Colour ([22]; E. coli 260545G, agar) was “Red” and the Colour ([22]; E. coli 260547N, agar) was “Red”. The Colour ([22]; E. coli 260548Q, agar) was “Red”, the Colour ([22]; E. coli 260549E, agar) was “Red” and the Colour ([22]; E. coli 260553X, agar) was “−”. For the same molecule, the Colour ([22]; E. coli 260554D, agar) was “Red”, the Colour ([22]; E. coli 260555L, agar) was “Red” and the Colour ([22]; E. coli 260563B, agar) was “Red”. The Colour ([22]; E. coli 260564R, agar) was “Red”, the Colour ([22]; E. coli 260578D, agar) was “−” and the Colour ([22]; E. coli 2603121P, agar) was “−”. For the same molecule, the Colour (E. cloacae; E. cloacae 260329R, agar) was “−”, the Colour (E. cloacae; E. cloacae NCTC 11936, agar) was “−” and the Colour (E. faecium NCTC 7171) was “−”. The Colour (E. faecalis NCTC 775) was “−”.
